# Measured values reported in the SangsterLogP compilation.
# Key:
# [1] = method code SF-AS, from DOI: 10.1007/bf02877675, PMID: 411721
# [2] = method code SF, from DOI: 10.1016/0048-3575(88)90017-x
# [3] = method code SF, from DOI: 10.1021/jm00307a001, PMID: 5637185
# [4] = method code SF-EPR, from DOI: 10.1007/bf01870789, PMID: 2549250; conditions: pH 12.0
# [5] = method code SF-AS, from DOI: 10.1021/jm00163a043, PMID: 2153206; conditions: pH 7.0
# [6] = not given; remark: listed apart in the source
# [7] = method code SF, from DOI: 10.1515/bc.2002.085, PMID: 12108546
# [8] = not given; remark: listed apart in the source
# [9] = not given; remark: listed apart in the source
# [10] = method code SF-RC, from DOI: 10.1016/s0969-8051(98)00096-1, PMID: 10100217; conditions: pH 7.4
# [11] = method code SF-AS, from DOI: 10.1002/jps.2600800717, PMID: 1658297
# [12] = method code SF-GLC, from DOI: 10.1021/je970069v
# [13] = method code SF-AS, from DOI: 10.1007/bf01067967, PMID: 3820093; conditions: pH 7.5
# [14] = not given; remark: listed apart in the source
# [15] = method code SF, from DOI: 10.1021/jm030913e.s001, PMID: 14736235; conditions: pH 7.4
# [16] = method code SF-AS, from DOI: 10.1002/jps.2600650731; conditions: pH 11.5
# [17] = method code SF-CR, from DOI: 10.1248/cpb.21.2417, PMID: 4779830; conditions: pH 6.0
# [18] = method code SF-AS, from PMID: 3699148; conditions: pH 7.4
# [19] = method code SF-AS, from DOI: 10.1002/ddr.430140205; conditions: pH 7.4
# [20] = method code SF, from DOI: 10.1016/j.bmcl.2006.04.097, PMID: 16714112
# [21] = method code SF-HPLC, from PMID: 1515051; conditions: pH 6.0
# [22] = method code SF-AS, from DOI: 10.1111/j.1476-5381.1988.tb11523.x, PMID: 2900037; conditions: pH 7.5
smiles,measurement,setting,value
N#CC(C#N)=NNc1cccc(Cl)c1,logP,[1],3.13
CC(=O)OCN1C(=O)c2cccc3cccc(c23)C1=O,logP,[2],2.34
CC(=O)OCN1C(=O)C2CC=CCC2C1=O (centres undefined),logP,[2],0.97
C#CC(C=C)(CC)OC(N)=O (centres undefined),logP,[3],1.09
Cc1ccc(C)c(O)c1,logP,,2.48
CC1(C)CC(N)CC(C)(C)N1O,logD,[4],0.56
Cc1cn([C@H]2C[C@H](N=[N+]=[N-])[C@@H](CO)O2)c(=O)[nH]c1=S,logD,[5],1.07
Cc1ccccc1N(C)C,logP,[6],2.81
CCCCCCCCOC(=O)C1(C)CCC=[N+]1[O-] (centres undefined),logP,[7],1.62
[cH:1]1[c:2]([Cl:3])[c:4]2[cH:5][cH:6][cH:7][c:8]([Cl:9])[c:10]2[cH:11][cH:12]1,logP,[8],4.67
CON(C)C(=O)Nc1ccc(Cl)cc1,logP,[9],2.16
COC1=C(OC)C(=O)C(CCCCCCCCCCO)=C(C)C1=O,logD,[10],2.96
CC1(C)CC(N(N=O)C(=O)NC2C(O)OC(CO)C(O)C2O)CC(C)(C)N1O (centres undefined),logP,[11],1.87
Cc1c(Cl)cc(C(C)C)c(Cl)c1Cl,logP,[12],6.2
CN(N=O)C(=O)NC[C@H](O)[C@@H](O)[C@H](O)[C@H](O)CO,logP,[11],-0.96
Nc1ccc2ccccc2c1,logD,[13],2.4
COc1c(O)c(C)c(CCCCCCCCCCO)c(O)c1OC,logD,[10],2.55
CNc1nc(NC(C)C)nc(SC)n1,logP,[14],2.79
CC(=O)OCN1C(=O)C=C(C)C1=O,logP,[2],0.45
Cc1ccc(NN=C(C#N)C#N)cc1,logP,[1],3.02
CNc1ccccc1C,logP,[6],2.16
CCOC(=O)C1(C)CCC=[N+]1[O-] (centres undefined),logP,[7],-0.82
CC[C@@H](C(N)=O)N1CCCC1=O,logD,[15],-0.65
CN(C(=N)N)/C(N)=N/c1ccc(Cl)cc1,logD,[16],1.58
Cc1ccc2ccccc2n1,logP,[6],2.59
CN(c1nccs1)S(=O)(=O)c1ccc(N)cc1,logD,[17],1.63
NC(=O)c1ccccc1NCCO,logD,[18],-0.05
Cc1cc(Cl)c(C(C)C)cc1Cl,logP,[12],5.6
CC1(C)C(C=C(Cl)Cl)C1C(=O)OCc1cccc(Oc2ccccc2)c1 (centres undefined),logP,[9],5.85
CCOP(=S)(OCC)Oc1ccc([N+](=O)[O-])cc1,logP,[9],3.45
CNC1CC(C)(C)N(O)C(C)(C)C1,logD,[4],0.84
Nc1cc(-c2ccncc2)c[nH]c1=O,logD,[19],0.54
Fc1cccc(Cl)c1C1=NCCO1,logP,[20],1.89
CC(C)(C)c1cc(C(C)(C)C)c(O)c(C(C)(C)C)c1,logP,,6.3
CCCCCC/N=C(N)/N=C(\N)Nc1ccc(Cl)cc1,logD,[16],1.85
CCC1(CC)SCC(=O)NC1=O,logP,[3],1.5
CC(C)c1ccc(N)cc1,logD,[13],2.31
CCCCOC(=O)C1(C)CCC=[N+]1[O-] (centres undefined),logP,[7],0.12
CN(CCO)C1CC(C)(C)N(O)C(C)(C)C1,logD,[4],0.53
CC(C)Cn1c(=O)n(C)c(=O)c2nc[nH]c21,logD,[19],1.22
CCCOC(=O)n1c(-c2cscn2)nc2ccccc21,logD,[21],2.98
CCCCc1ccc(N)cc1,logD,[13],3.05
O=C(NCCCOc1cccc(N2CCCCC2)c1)c1ccccc1,logD,[22],3.97
CCc1[nH]c(=O)[nH]c1C(=O)c1ccncc1,logD,[19],0.08
